# Test results taken from patent US8765779B2, “Tricyclic derivatives and their pharmaceutical use and compositions” (Cephalon, Inc., priority 2009, dated 2014).
# Structures can show the parent of a compound that is named as a salt.
# Molecular target: T1, human 5-HT6 receptor (Homo sapiens, UniProt P50406)
# T1 construct: host or cells: CHO-K1 cells, stably transfected; membranes prepared in house
# Assay: Human 5-HT6 Receptor Binding Assay ([3H]LSD displacement, scintillation beads)
# Settings: membranes of CHO-K1 cells with recombinant human 5-HT6, 4 nM [3H]LSD; Table 1, class symbols; read-out: h5-HT6 (Ki)
# T1 sequence (P50406 whole entry): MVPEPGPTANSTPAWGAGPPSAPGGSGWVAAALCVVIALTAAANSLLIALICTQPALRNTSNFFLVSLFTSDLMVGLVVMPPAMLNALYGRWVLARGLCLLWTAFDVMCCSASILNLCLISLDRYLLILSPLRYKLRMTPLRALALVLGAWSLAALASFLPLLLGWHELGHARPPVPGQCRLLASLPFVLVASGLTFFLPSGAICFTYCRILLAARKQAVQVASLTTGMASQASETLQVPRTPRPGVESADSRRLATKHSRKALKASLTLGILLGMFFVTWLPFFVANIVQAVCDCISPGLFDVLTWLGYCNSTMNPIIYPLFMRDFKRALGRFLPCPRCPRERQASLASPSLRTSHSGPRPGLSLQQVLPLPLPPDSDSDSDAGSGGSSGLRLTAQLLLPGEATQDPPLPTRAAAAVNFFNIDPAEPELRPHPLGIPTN
row,Compound,Ki
1,CC(C)Oc1cccc(S(=O)(=O)c2ccc3c(c2)OC2CNCCC32)c1F (stereo not shown) [Example 483],< 0.5 µM
2,O=S(=O)(Oc1ccc2c(c1)C1CCNCC1O2)c1cc2ccccc2s1 (stereo not shown) [Example 724],< 0.5 µM
3,O=S(=O)(c1ccc2c(c1)OC1CNCCC21)C1CCCCC1 (stereo not shown) [Example 154],> 1 µM
4,O=S(=O)(c1cccc(Oc2cnccn2)c1)c1ccc2c(c1)OC1CNCCC21 (stereo not shown) [Example 580],< 0.5 µM
5,[O-][S+](c1ccc2oc3c(c2c1)CCNC3)c1cccnc1Cl (stereo not shown) [Example 445],> 1 µM
6,COc1cccc(S(=O)(=O)Nc2ccc3c(c2)C2CCNCC2O3)c1 (stereo not shown) [Example 822],> 1 µM
7,CCCCCOc1cccc(S(=O)(=O)c2ccc3c(c2)OC2CNCCC32)c1 (stereo not shown) [Example 557],< 0.5 µM
8,CC12CCNCC1Oc1cc(S(=O)(=O)c3cc(F)cc(F)c3)ccc12 (stereo not shown) [Example 359],< 0.5 µM
9,COc1cc(S(=O)(=O)c2ccc3c4c(oc3c2)C2(CCOC2)NCC4(C)C)c[n+]([O-])c1 (stereo not shown) [Example 453],> 1 µM
10,O=S(=O)(c1ccc2c3c(oc2c1)CNCC3)c1cc(F)ccc1F [Example 223],< 0.5 µM
11,"O=S(=O)(Nc1ccc(Cl)cc1)c1ccc2c(c1)C1CCNCC1O2 (stereo not shown) [Example 836, N-(4-Chlorophenyl)-1,2,3,4,4a,9a-hexahydro[1]benzofuro[2,3-c]pyridine-6-sulfonamide]",> 1 µM
12,CC(C)c1ccc(S(=O)(=O)c2ccc3c(c2)C2CCNCC2O3)cc1 (stereo not shown) [Example 179],< 0.5 µM
13,[O-][S+](c1ccc2c3c(oc2c1)CNCC3)c1cc(Cl)ccc1Cl (stereo not shown) [Example 214],< 0.5 µM
14,CC(C)Oc1ncccc1[S+]([O-])c1ccc2oc3c(c2c1)CCNC3 (stereo not shown) [Example 446],< 0.5 µM
15,O=S(=O)(c1ccc2c(c1)OC1CNCCC21)c1cccc2c1OCCO2 (stereo not shown) [Example 457],< 0.5 µM
16,O=S(=O)(c1ccc2oc3c(c2c1)CCNC3)c1ccccc1F [Example 277],< 0.5 µM
17,O=S(=O)(c1cccc(Cl)c1Cl)c1cccc2c1OC1CNCCC21 (stereo not shown) [Example 338],< 0.5 µM
18,CN(C)c1cccc(S(=O)(=O)c2ccc3c4c(oc3c2)CNCC4)c1 [Example 347],< 0.5 µM
19,CC1(C)NCCc2c1oc1cc(S(=O)(=O)c3cncc(Br)c3)ccc21 [Example 367],< 0.5 µM
20,O=S(=O)(c1ccncc1)c1ccc2c3c(oc2c1)CNCC3 [Example 344],0.5 to 1 µM
21,O=S(=O)(c1ccccc1)c1ccc2c(c1)OC1CN(Cc3ccccc3)CCC21 (stereo not shown) [Example 611],< 0.5 µM
22,O=S(=O)(Oc1ccc2c(c1)C1CCNCC1O2)c1ccc(-c2ccon2)s1 (stereo not shown) [Example 742],< 0.5 µM
23,O=S(=O)(c1cccc(C(F)(F)F)c1)c1ccc2oc3c(c2c1)CCNC3 [Example 239],< 0.5 µM
24,O=S(=O)(c1cccc(F)c1)c1ccc2oc3c(c2c1)CCNC3CC(F)(F)F (stereo not shown) [Example 518],> 1 µM

row,Compound,Ki
1,O=S(=O)(Oc1ccc2c(c1)OC1CNCCC21)c1c(Cl)nc2sccn12 (stereo not shown) [Example 792],< 0.5 µM
2,Cc1cc(C)c(S(=O)(=O)Oc2ccc3c(c2)C2CCNCC2O3)c(C)c1 (stereo not shown) [Example 715],< 0.5 µM
3,O=S(=O)(c1cccc(C(F)(F)F)c1)c1ccc2c3c(oc2c1)C1(CCOCC1)NCC3 [Example 298],< 0.5 µM
4,CC(C)c1ccc(S(=O)(=O)Oc2ccc3c(c2)OC2CNCCC32)cc1 (stereo not shown) [Example 657],< 0.5 µM
5,COc1cc(OC)cc(S(=O)(=O)c2ccc3c(c2)OC2CNCCC32)c1 (stereo not shown) [Example 480],< 0.5 µM
6,CC1(C)NCCc2c1oc1cc(S(=O)(=O)c3cccc(C(F)(F)F)c3)ccc21 [Example 289],< 0.5 µM
7,"O=S(=O)(c1cccc(F)c1)c1ccc2c3c(oc2c1)C1(CCC1)NCC3 [Example 25, 7-[(3-fluorophenyl)sulfonyl]-3,4-dihydro-2H-spiro[1-benzofuro[2,3-c]pyridine-1,1′-cyclobutane]]",< 0.5 µM
8,"O=S(=O)(c1ccc2oc3c(c2c1)CCNC3)c1cccc(Cl)c1Cl [Example 260, 6-[(2,3-dichlorophenyl)sulfonyl]-1,2,3,4-tetrahydro[1]benzofuro[2,3-c]pyridine]",< 0.5 µM
9,"CC(=O)NCC1(C)NCCc2c1oc1cc(S(=O)(=O)c3cccc(F)c3)ccc21 (stereo not shown) [Example 632, N-({7-[(3-fluorophenyl)sulfonyl]-1-methyl-1,2,3,4-tetrahydro[1]benzofuro[2,3-c]pyridin-1-yl}methyl)acetamide]",< 0.5 µM
10,"CC(C)C(=O)NCC1(C)NCCc2c1oc1cc(S(=O)(=O)c3cccc(F)c3)ccc21 (stereo not shown) [Example 491, N-[7-(3-Fluoro-benzenesulfonyl)-1-methyl-1,2,3,4-tetrahydro-benzofuro[2,3-c]pyridin-1-ylmethyl]-isobutyramide]",< 0.5 µM
11,O=S(=O)(c1cc(F)cc(F)c1)c1ccc2oc3c(c2c1)CCNC3 [Example 256],< 0.5 µM
12,CC12CCNCC1Oc1cc(S(=O)(=O)c3cccc(F)c3F)ccc12 (stereo not shown) [Example 488],< 0.5 µM
13,O=S(=O)(Oc1ccc2c(c1)C1CCNCC1O2)c1csc(C(F)(F)F)c1-c1ccccc1 (stereo not shown) [Example 747],0.5 to 1 µM
14,O=S(=O)(c1ccc2oc3c(c2c1)CCNC3)c1cccc2ccccc12 [Example 249],< 0.5 µM
15,"O=S(=O)(c1ccccc1)c1ccc2c3c(oc2c1)[C@@]1(CCOC1)NCC3 (single isomer, unassigned) [Example 108]",< 0.5 µM
16,O=S(=O)(c1ccccc1)c1ccc2c3c(oc2c1)CN(Cc1ccccc1)CC3 [Example 597],0.5 to 1 µM
17,O=S(=O)(c1cc(Cl)cc(Cl)c1)c1ccc2c(c1)OC1CNCCC21 (stereo not shown) [Example 155],< 0.5 µM
18,[O-][S+](c1ccc2oc3c(c2c1)CCNC3)c1cccc(F)c1F (stereo not shown) [Example 442],> 1 µM
19,CC(C)c1ccc(S(=O)(=O)c2ccc3oc4c(c3c2)CCNC4)cc1 [Example 259],< 0.5 µM
20,O=S(=O)(Oc1ccc2c(c1)C1CCNCC1O2)c1ccccc1Cl (stereo not shown) [Example 711],< 0.5 µM
21,O=S(=O)(c1cccc(Cl)c1)c1ccc2c3c(oc2c1)CN(CC(F)(F)F)CC3 [Example 604],< 0.5 µM
22,CC(C)COc1cc(F)cc(S(=O)(=O)c2ccc3c(c2)OC2CNCCC32)c1 (stereo not shown) [Example 414],< 0.5 µM
23,O=S(=O)(Oc1ccc2c(c1)OC1CNCCC21)c1csc(C(F)(F)F)c1-c1ccccc1 (stereo not shown) [Example 686],< 0.5 µM
24,"CC1OCCC12NCCc1c2oc2cc(S(=O)(=O)c3cccc(F)c3)ccc12 (single isomer, unassigned) [Example 60, 7-[(3-Fluorophenyl)sulfonyl]-2′-methyl-3,4,4′,5′-tetrahydro-2H-spiro[1-benzofuro[2,3-c]pyridine-1,3′-furan]]",< 0.5 µM

row,Compound,Ki
1,O=S(=O)(Oc1ccc2c(c1)OC1CNCCC21)c1ccc(OC(F)(F)F)cc1 (stereo not shown) [Example 682],< 0.5 µM
2,"O=S(=O)(c1cc(F)cc(F)c1)c1ccc2c3c(oc2c1)C1(CCOCC1)NCC3 [Example 301, 7-[(3,5-difluorophenyl)sulfonyl]-2′,3,3′,4,5′,6′-hexahydro-2H-spiro[1-benzofuro[2,3-c]pyridine-1,4′-pyran]]",< 0.5 µM
3,"CC1(C(F)(F)F)NCCc2c1oc1cc(S(=O)(=O)c3cccc(F)c3)ccc21 (racemic) [Example 37, 7-[(3-fluorophenyl)sulfonyl]-1-methyl-1-(trifluoromethyl)-1,2,3,4-tetrahydro[1]benzofuro[2,3-c]pyridine]",< 0.5 µM
4,CC(C)c1ccc(S(=O)(=O)Oc2ccc3c(c2)C2(C)CCNCC2O3)cc1 (stereo not shown) [Example 766],0.5 to 1 µM
5,O=S(=O)(Oc1ccc2c(c1)C1CCNCC1O2)c1cc2ccccc2o1 (stereo not shown) [Example 713],< 0.5 µM
6,CCCCC1NCCc2c1oc1cc(S(=O)(=O)c3cccc(F)c3)ccc21 (stereo not shown) [Example 506],< 0.5 µM
7,O=S(=O)(c1ccc2c(c1)OC1CNCCC21)c1ccccc1OCC(F)(F)F (stereo not shown) [Example 421],< 0.5 µM
8,"CC(=O)N(C)CCC1NCCc2c1oc1ccc(S(=O)(=O)c3cccc(F)c3)cc21 (stereo not shown) [Example 534, N-(2-{6-[(3-Fluorophenyl)sulfonyl]-1,2,3,4-tetrahydro[1]benzofuro[2,3-c]pyridin-1-yl}ethyl)-N-methylacetamide]",< 0.5 µM
9,CC(C)c1ccc(S(=O)(=O)Oc2ccc3c(c2)OC2CNCCC32)cc1 (stereo not shown) [Example 794],< 0.5 µM
10,"COc1cccc(S(=O)(=O)c2ccc3c(c2)OC2CNCCC32C)c1 (racemic) [Example 4, 7-[(3-methoxyphenyl)sulfonyl]-4a-methyl-1,2,3,4,4a,9a-hexahydro[1]benzofuro[2,3-c]pyridine]",< 0.5 µM
11,"O=S(=O)(c1cccc(OC(F)(F)F)c1)c1ccc2c(c1)OC1CNCCC21 (stereo not shown) [Example 149, 7-{[3-(trifluoromethoxy)phenyl]sulfo-nyl}-1,2,3,4,4a,9a-hexahydro[1]benzofuro[2,3-c]pyridine]",< 0.5 µM
12,[O-][S+](c1ccc2c(c1)OC1CNCCC21)c1cccnc1Cl (stereo not shown) [Example 389],> 1 µM
13,Cc1ccc(F)cc1S(=O)(=O)c1ccc2c(c1)OC1CNCCC21 (stereo not shown) [Example 130],< 0.5 µM
14,CC12CCNCC1Oc1cc(S(=O)(=O)c3ccc(F)cc3)ccc12 (stereo not shown) [Example 356],0.5 to 1 µM
15,"O=S(=O)(c1ccc(OC(F)(F)F)cc1)c1ccc2oc3c(c2c1)CCNC3 [Example 275, 6-{[4-(trifluoromethoxy)phenyl]sulfo-nyl}-1,2,3,4-tetrahydro[1]benzofuro[2,3-c]pyridine]",0.5 to 1 µM
16,O=S(=O)(c1ccc(F)c(Cl)c1)c1ccc2c3c(oc2c1)CNCC3 [Example 193],< 0.5 µM
17,O=S(=O)(Oc1ccc2c(c1)OC1CNCCC21)c1ccc(-c2ccccc2)cc1 (stereo not shown) [Example 681],< 0.5 µM
18,"O=S(=O)(c1ccccc1)c1ccc2c(c1)OC1CN(C3CCC3)CCC21 (stereo not shown) [Example 606, 2-Cyclobutyl-7-(phenylsulfonyl)-1,2,3,4,4a,9a-hexahydro[1]benzofuro[2,3-c]pyridine trifluoroacetic acid salt]",< 0.5 µM
19,O=S(=O)(c1ccc2c(c1)OC1CNCCC21)c1c(F)c(F)cc(F)c1F (stereo not shown) [Example 150],< 0.5 µM
20,CC(C)Oc1cccc(S(=O)(=O)c2ccc3c4c(oc3c2)CNCC4)c1 [Example 217],< 0.5 µM
21,Cc1cccc(S(=O)(=O)c2ccc3oc4c(c3c2)CCNC4)n1 [Example 350],< 0.5 µM
22,CC1NCCc2c1oc1cc(S(=O)(=O)c3cccc(C(F)(F)F)c3)ccc21 (stereo not shown) [Example 237],< 0.5 µM
